Data on 3 compounds can be found in PMC12542666, “Mechanistic insights into the dimethylsulfoniopropionate synthesis enzyme BurB” (Applied and Environmental Microbiology, 2025).

Where two headings read alike, the source gives them in different places.

One experiment relates to BurB. The class given is biochemical, Burkholderia thailandensis.
The target in experiment [1] is BurB from Burkholderia thailandensis (Burkholderia thailandensis). Nature of the experiment: SEC. (In gel filtration, larger molecules generally elute earlier.)

What is called Km is the substrate concentration at which the rate is half of its maximum. As to `C[S+](CC[C@H](N)C(=O)O)C[C@H]1O[C@@H](n2cnc3c(N)ncnc32)[C@H](O)[C@@H]1O` (stereo partly drawn) [SAM], the Km with BurB is 1.8 mM.

What is called stoichiometry N is the number of molecules, sites or subunits per partner or assembly. In turn, “BurB from Burkholderia thailandensis (enzyme)” showed a stoichiometry N in experiment [1] of 4.

`CSCC[C@H](N)C(=O)O` [Met]: the Km in the experiment with BurB (pH 9.0, 40 °C) was found to be 16.6 mM.
